Tests used:
KDR = target: T1, KDR (Homo sapiens, UniProt P35968); test: KDR kinase HTRF assay; type: biochemical
T1 construct: EEE tag
Description: To determine inhibition of KDR and FGFR, kinase assays were conducted using an HTRF (Homogeneous Time Resolved Fluorescence) assay. This assay is described in A. J. Kolb et. al., Drug Discovery Today, 1998, 3(7), p 333.
Prior to kinase reaction, recombinant EEE-tagged KDR was activated in the presence of activation buffer (50 mM HEPES, pH 7.4, 1 mM DTT, 10% glycerol, 150 mM NaCl, 0.1 mM EDTA, 26 mM MgCl2, and 4 mM ATP). The enzyme was incubated at 4° C. for 1 hour.
Kinase activity assays were performed in 96-well polypropylene plates (Falcon) with a total volume of 90 μL in each well. Each well contained 1 μM KDR substrate (Biotin-[…]), 1 nM activated KDR, and a test compound with one of 8 assay concentrations ranging from […] to […] (1:5 serial dilution). […] The reaction was incubated at 37° C. for 30 minutes. To stop the KDR reaction, 72 μL of reaction mixture was transferred into a STOP plate containing 18 μL of revelation buffer (20 mM EDTA, 50 mM HEPES, pH 7.4, 0.02% BSA, 10 nM Eu-labelled anti-pY antibody (final conc. 2 nM), and 100 nM streptavidin (final conc. 20 nM)). After mixing, 35 μL of solution was transferred into duplicate wells of a 384-well black plate (Costar), and read at 615/665 nm on a Wallac Victor 5 reader.
Compound IC50 values were determined from duplicate sets of data, and calculated by using Excel and fitting data to equation Y=[(a−b)/{1+(X/c)^d]+b, where a and b are enzyme activity in the presence of no test inhibitor compound and an infinite amount of inhibitor test compound, respectively, c is the IC50 and d is the hill constant of the compound response. The IC50 value is the concentration of test compound that reduces by 50% the enzyme activity under the test conditions described.

VEGF-stimulated HUVEC = VEGF-stimulated HUVEC proliferation assay (BrdU); type: cell-based; conditions: Homo sapiens, BrdU labeling, VEGF 20 ng per mL, 24 hour exposure, read-out: Antiproliferative Activity VEGF-stimulated HUVEC Assay IC50
Description: (§1) The antiproliferative activity of test compounds of this invention in cell-based assays was evaluated by BrdU assay using the BrdU kit (Roche Biochemicals 1-647-229). Human umbilical vein endothelial cells (HUVEC, Clonetics CC-2519) were cultured in EGM-2 (Clonetics CC-3162) medium and seeded at 10000 cells per well in a volume of 200 μL of EGM-2 (Clonetics CC-3162) media in a 96-well flat bottom plates (Costar 3595) overnight. After 24 hours of growth at 37° C. with 5% CO2, the incubation media was removed slowly by aspiration, and the content of each well was washed with 300 μL pre-warmed EBM-2 (Clonetics CC-3156) containing 50 μg per mL of gentamycin and 50 ng per mL of amphotercin-B (Clonetics CC-4083). Subsequently, the remaining media was again aspirated and replaced with 160 μL per well of serum starvation media (EBM-2 supplemented with 1% heat inactivated FBS (Clonetics CC-4102), 50 μg per mL gentamycin and 50 ng per mL of amphotercin-B (Clonetics CC-4083), 10 units per mL of Wyeth-Ayerst heparin (NDC0641-0391-25), and 2 mM L-glutamine (GIBCO 25030-081). After serum starving the cells for 24 hours, 20 μL of test compound at 10× test concentration in serum starvation medium with 2.5% DMSO was added to the appropriate wells. The control wells contained 20 μL of serum starvation medium with 2.5% DMSO. Plates were returned to the incubator for 2 hours. After pre-incubating the cells with the test compounds for 2 hours, 20 μL of growth factors at 10X assay concentration diluted in serum starvation media, FGF at 50 ng per mL, or VEGF (R&D systems 293-VE) at 200 ng per mL were added. The final concentration of FGF in the assay was 5 ng per mL and the final concentration of VEGF in the assays was 20 ng per mL. The growth factor free control wells had 20 μL per well of serum starvation media with the same amount of BSA as the wells with growth factors. The plates were returned to the incubator for an additional 22 hours.
(§2) After 24 hour exposure to the test compounds, the cells were labeled with BrdU (Roche Biochemicals 1-647-229), by adding 20 μL per well of BrdU labeling reagent that has been diluted (1:100) in serum starvation medium. The plates were then returned to the incubator for 4 hours. The labeling medium was removed by draining the medium onto paper towels. […] The plates were read at 450 nm with reference wavelength of 650 nm. The percent inhibition for each test compound was calculated by subtracting the absorbency of the blank (no cells) wells from all wells, then subtracting the division of the average absorbency of each test duplicate by the average of the controls from 1. […] The IC50 is determined from the linear regression of a plot of the logarithm of the concentration versus percent inhibition.

FGF-stimulated HUVEC = FGF-stimulated HUVEC proliferation assay (BrdU); type: cell-based; conditions: Homo sapiens, BrdU labeling, FGF 5 ng per mL, 24 hour exposure, read-out: Antiproliferative Activity FGF-stimulated HUVEC Assay IC50
Description: as §1, §2

T1 sequence (P35968 20-1356, species assumed): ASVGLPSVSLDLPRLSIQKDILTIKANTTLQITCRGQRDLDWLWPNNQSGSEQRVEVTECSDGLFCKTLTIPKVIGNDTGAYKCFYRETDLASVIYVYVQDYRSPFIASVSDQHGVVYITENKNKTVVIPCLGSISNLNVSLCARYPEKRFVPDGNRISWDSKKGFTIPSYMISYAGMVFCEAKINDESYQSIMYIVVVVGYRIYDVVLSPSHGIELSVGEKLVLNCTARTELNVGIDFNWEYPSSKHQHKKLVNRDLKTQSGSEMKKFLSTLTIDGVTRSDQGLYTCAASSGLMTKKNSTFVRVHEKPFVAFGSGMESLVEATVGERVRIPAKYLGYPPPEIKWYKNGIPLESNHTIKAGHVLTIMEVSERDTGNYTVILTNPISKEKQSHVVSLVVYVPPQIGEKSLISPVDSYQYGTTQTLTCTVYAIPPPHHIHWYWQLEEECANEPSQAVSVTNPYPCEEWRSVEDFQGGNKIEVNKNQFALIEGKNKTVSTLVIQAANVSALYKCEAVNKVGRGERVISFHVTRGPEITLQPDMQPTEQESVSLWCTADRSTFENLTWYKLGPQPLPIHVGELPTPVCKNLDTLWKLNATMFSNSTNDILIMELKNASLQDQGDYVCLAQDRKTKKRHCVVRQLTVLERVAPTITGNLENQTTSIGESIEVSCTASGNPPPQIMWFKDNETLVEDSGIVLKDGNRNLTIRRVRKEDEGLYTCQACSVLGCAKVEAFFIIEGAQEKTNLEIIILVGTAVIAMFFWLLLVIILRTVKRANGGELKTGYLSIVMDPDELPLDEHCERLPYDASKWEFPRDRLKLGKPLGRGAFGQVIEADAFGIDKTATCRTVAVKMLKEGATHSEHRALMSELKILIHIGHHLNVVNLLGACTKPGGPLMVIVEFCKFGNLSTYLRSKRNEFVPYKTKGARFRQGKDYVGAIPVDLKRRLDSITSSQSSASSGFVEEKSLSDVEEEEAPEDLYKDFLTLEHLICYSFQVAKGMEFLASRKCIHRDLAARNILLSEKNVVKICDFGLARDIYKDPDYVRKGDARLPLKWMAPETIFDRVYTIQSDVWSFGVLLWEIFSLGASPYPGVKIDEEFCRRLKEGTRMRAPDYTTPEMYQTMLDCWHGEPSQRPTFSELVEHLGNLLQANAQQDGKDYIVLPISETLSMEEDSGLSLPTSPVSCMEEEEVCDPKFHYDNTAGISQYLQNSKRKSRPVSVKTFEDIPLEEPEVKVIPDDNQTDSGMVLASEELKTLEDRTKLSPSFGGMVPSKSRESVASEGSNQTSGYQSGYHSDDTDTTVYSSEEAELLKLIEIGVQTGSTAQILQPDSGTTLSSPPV

SMILES: COc1cc2c(cc1F)C(c1ccccc1Cl)=Nc1c(n[nH]c1C)N2 [IVa, 5-(2-chlorophenyl)-1,2-dihydro-7-fluoro-8-methoxy-3-methyl-pyrazolo[3,4-b][1,4]benzodiazepine]
- IC50 (KDR): 10 nM
- IC50 (VEGF-stimulated HUVEC): 23 nM
- IC50 (FGF-stimulated HUVEC): 100 nM

Source: patent publication US7524840B2, “7,8-disubstituted pyrazolobenzodiazepines” (Hoffmann-La Roche Inc., priority 2004, dated 2009)
